Assay results published in ChEMBL document CHEMBL3352046, “Serendipitous discovery of 2-((phenylsulfonyl)methyl)-thieno[3,2-d]pyrimidine derivatives as novel HIV-1 replication inhibitors” (Bioorg Med Chem Lett, 2014).

Experiments:
[1] = Therapeutic index, ratio of CC50 for human CEmx174 cells expressing GFP to IC50 for HIV-1 LAI infected in human CEMx174-LTR-GFP CG8 cells; settings: read-out: Ratio CC50/EC50
[2] = test system: Human immunodeficiency virus 1; assay: Antiviral activity against HIV-1 LAI infected in human CEMx174-LTR-GFP CG8 cells assessed as inhibition of viral replication after 5 days; format: functional, organism-based; settings: Human immunodeficiency virus 1, LAI, 120 h
[3] = Cytotoxicity against human CEmx174 cells expressing GFP after 5 days by resazurin assay; format: cell-based
Cytochrome P450 2C9 = Cytochrome P450 2C9 (Homo sapiens, UniProt P11712); assay: Inhibition of recombinant CYP2C9 (unknown origin) after 10 mins by LC-MS/MS analysis; format: ADME
Cytochrome P450 3A4 = Cytochrome P450 3A4 (Homo sapiens, UniProt P08684); assay: Inhibition of recombinant CYP3A4 (unknown origin) after 3 mins by LC-MS/MS analysis; format: ADME
Cytochrome P450 2D6 = Cytochrome P450 2D6 (Homo sapiens, UniProt P10635); assay: Inhibition of recombinant CYP2D6 (unknown origin) after 20 mins by LC-MS/MS analysis; format: ADME
Cytochrome P450 1A2 = target: T1, Cytochrome P450 1A2 (Homo sapiens, UniProt P05177); assay: Inhibition of recombinant CYP1A2 (unknown origin) after 10 mins by LC-MS/MS analysis; format: ADME
T1 sequence (P05177 whole entry): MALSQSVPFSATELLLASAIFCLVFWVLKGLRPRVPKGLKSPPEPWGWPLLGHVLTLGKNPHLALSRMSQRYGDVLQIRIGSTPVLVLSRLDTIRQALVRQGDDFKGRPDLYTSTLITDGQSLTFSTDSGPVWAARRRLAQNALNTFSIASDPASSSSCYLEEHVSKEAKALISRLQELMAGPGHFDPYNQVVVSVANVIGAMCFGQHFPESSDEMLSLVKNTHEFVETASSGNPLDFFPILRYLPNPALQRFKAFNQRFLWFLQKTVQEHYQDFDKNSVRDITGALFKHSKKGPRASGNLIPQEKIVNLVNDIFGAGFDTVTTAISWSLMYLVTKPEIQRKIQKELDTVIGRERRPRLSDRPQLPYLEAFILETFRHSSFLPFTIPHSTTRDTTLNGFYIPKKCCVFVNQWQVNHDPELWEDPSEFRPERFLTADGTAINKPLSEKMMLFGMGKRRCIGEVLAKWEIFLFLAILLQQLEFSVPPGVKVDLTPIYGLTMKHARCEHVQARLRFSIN

Chain of Cytochrome P450 2C9 (P11712 whole entry): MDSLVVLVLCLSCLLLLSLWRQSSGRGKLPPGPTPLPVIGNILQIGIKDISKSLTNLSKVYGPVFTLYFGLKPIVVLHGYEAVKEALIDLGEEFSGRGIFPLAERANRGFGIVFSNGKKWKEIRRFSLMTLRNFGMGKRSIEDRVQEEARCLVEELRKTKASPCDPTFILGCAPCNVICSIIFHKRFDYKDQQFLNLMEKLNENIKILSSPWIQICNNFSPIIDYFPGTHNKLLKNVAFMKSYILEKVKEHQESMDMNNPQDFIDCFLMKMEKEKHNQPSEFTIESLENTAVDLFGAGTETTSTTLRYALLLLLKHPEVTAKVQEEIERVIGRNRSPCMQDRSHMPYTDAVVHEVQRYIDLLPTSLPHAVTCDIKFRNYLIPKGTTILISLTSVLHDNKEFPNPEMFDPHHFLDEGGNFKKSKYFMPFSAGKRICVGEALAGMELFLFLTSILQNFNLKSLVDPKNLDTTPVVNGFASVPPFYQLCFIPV
Chain of Cytochrome P450 3A4 (P08684 whole entry): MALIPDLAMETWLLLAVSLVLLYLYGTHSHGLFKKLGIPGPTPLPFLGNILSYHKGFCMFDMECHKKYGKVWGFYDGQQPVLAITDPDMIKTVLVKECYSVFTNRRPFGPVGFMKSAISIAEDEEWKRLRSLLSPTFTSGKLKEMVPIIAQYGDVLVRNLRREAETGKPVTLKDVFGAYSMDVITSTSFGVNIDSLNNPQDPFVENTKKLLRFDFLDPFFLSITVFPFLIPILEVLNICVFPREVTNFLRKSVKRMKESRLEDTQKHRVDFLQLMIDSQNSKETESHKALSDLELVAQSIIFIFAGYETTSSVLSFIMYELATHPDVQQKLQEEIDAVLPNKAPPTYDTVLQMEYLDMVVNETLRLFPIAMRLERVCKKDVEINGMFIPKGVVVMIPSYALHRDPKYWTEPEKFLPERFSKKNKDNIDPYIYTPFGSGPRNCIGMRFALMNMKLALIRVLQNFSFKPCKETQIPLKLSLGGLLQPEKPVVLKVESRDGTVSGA
Chain of Cytochrome P450 2D6 (P10635 whole entry): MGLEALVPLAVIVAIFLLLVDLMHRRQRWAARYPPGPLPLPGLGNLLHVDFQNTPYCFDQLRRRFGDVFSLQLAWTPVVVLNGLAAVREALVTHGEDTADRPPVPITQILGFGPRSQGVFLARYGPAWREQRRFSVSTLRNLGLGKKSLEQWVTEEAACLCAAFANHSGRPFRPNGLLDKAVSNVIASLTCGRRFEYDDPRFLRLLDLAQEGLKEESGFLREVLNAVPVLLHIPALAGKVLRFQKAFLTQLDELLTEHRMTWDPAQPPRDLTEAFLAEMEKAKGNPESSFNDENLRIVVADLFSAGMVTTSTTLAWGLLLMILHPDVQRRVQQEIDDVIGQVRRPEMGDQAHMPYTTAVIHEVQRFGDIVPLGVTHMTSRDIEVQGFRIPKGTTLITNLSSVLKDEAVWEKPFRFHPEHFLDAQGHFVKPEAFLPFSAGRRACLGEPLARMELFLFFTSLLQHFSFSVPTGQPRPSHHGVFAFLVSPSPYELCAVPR

| SMILES | selectivity ratio [1] | EC50 [2] [µM] | CC50 at 120 h [3] [µM] | IC50 (Cytochrome P450 2C9) [µM] | IC50 (Cytochrome P450 3A4) [µM] | IC50 (Cytochrome P450 2D6) [µM] | IC50 (Cytochrome P450 1A2) [µM] |
| --- | --- | --- | --- | --- | --- | --- | --- |
| COc1ccc(-c2nc(C(C)(C)S(=O)(=O)c3cccc(Cl)c3)nc3ccsc23)cn1 | > 21 | 2.3 | > 50 |  |  |  |  |
| COc1ccc(-c2nc(CS(=O)(=O)c3cccc(Cl)c3)nc3ccsc23)cc1 | 669 | 0.103 | 69 |  |  |  |  |
| CCC1=C(C(=O)OCC2CCCCC2)C(c2cccc(O)c2)NC(=O)N1 (stereo not drawn) |  | 0.53 | > 10 |  |  |  |  |
| COc1ccc(-c2nc(CSc3ccc(F)cc3F)nc3ccsc23)cn1 | > 10 | 5 | > 50 |  |  |  |  |
| COc1ccc(-c2nc(C[S+]([O-])c3cccc(Cl)c3)nc3ccsc23)cn1 (stereo not drawn) | > 93 | 0.532 | > 50 |  |  |  |  |
| COc1ccc(-c2nc(/C=C\c3cccc(Cl)c3)nc3ccsc23)cn1 | 6.6 | 8 | 53 |  |  |  |  |
| Cc1ccnc2c1NC(=O)c1cccnc1N2C1CC1 [NEVIRAPINE] | > 66 |  | > 10 |  |  |  |  |
| O=S(=O)(Cc1nc(-c2cccs2)c2sccc2n1)c1cccc(Cl)c1 | > 357 | 0.14 | > 50 |  |  |  |  |
| COc1ccc(-c2nc(CS(=O)(=O)c3cccc(Cl)c3)nc3ccsc23)cn1 | > 400 | 0.025 | > 10 | 5.25 | 6.71 | > 10 | > 10 |
| COc1ccc(-c2nc(CSc3cccc(C(F)(F)F)c3)nc3ccsc23)cn1 | > 190 | 0.262 | > 50 |  |  |  |  |
| COc1ccc(-c2nc(CC(=O)c3cccc(Cl)c3)nc3ccsc23)cn1 | 150 | 0.2 | 30 |  |  |  |  |
| COc1ccc(-c2nc(CSc3cccc(Br)c3)nc3ccsc23)cn1 | > 316 | 0.158 | > 50 |  |  |  |  |
| COc1ccc(Oc2nc(CS(=O)(=O)c3cccc(Cl)c3)nc3ccsc23)cc1 | > 60 | 0.831 | > 50 |  |  |  |  |
| COc1ccc(-c2nc(CSc3cccc(Cl)c3)nc3ccsc23)cn1 | > 714 | 0.014 | > 10 |  |  |  |  |
| COc1ccc(-c2nc(C3(S(=O)(=O)c4cccc(Cl)c4)CC3)nc3ccsc23)cn1 | > 724 | 0.069 | > 50 |  |  |  |  |
| COc1ccc(-c2nc(CSc3cc(Cl)ccc3Cl)nc3ccsc23)cn1 | > 68 | 0.728 | > 50 |  |  |  |  |
| COc1ccc(-c2nc(CCS(=O)(=O)c3cccc(Cl)c3)nc3ccsc23)cn1 | > 9.2 | 5.4 | > 50 |  |  |  |  |
| O=S(=O)(Cc1nc(N2CCOCC2)c2sccc2n1)c1cccc(Cl)c1 | > 84 | 0.59 | > 50 |  |  |  |  |
| COc1ccc(Nc2nc(CS(=O)(=O)c3cccc(Cl)c3)nc3ccsc23)cc1 | 18.8 | 3.2 | 60 |  |  |  |  |
| COc1ccc(-c2nc(CC(O)c3cccc(Cl)c3)nc3ccsc23)cn1 (stereo not drawn) | 3.4 | 9 | 31 |  |  |  |  |

| SMILES | selectivity ratio [1] | EC50 [2] [µM] | CC50 at 120 h [3] [µM] | IC50 (Cytochrome P450 2C9) [µM] | IC50 (Cytochrome P450 3A4) [µM] | IC50 (Cytochrome P450 2D6) [µM] | IC50 (Cytochrome P450 1A2) [µM] |
| --- | --- | --- | --- | --- | --- | --- | --- |
| O=S(=O)(Cc1nc(-c2ccoc2)c2sccc2n1)c1cccc(Cl)c1 | > 64 | 0.775 | > 50 |  |  |  |  |
| O=S(=O)(Cc1nc(-c2ccncc2)c2sccc2n1)c1cccc(Cl)c1 | > 264 | 0.189 | > 50 |  |  |  |  |
| COc1ccc(-c2nc(S(=O)(=O)c3cccc(Cl)c3)nc3ccsc23)cn1 | > 155 | 0.322 | > 50 |  |  |  |  |
| COc1ccc(-c2nc(CSc3cccc(Cl)c3Cl)nc3ccsc23)cn1 | > 10 | 5 | > 50 |  |  |  |  |
| COc1ccc(-c2nc(CSCc3cccc(Cl)c3)nc3ccsc23)cn1 | > 2.2 | 23 | > 50 |  |  |  |  |
| O=S(=O)(Cc1nc(-c2cccnc2)c2sccc2n1)c1cccc(Cl)c1 | > 103 | 0.485 | > 50 |  |  |  |  |
| O=S(=O)(Cc1nc(-c2ccc(F)nc2)c2sccc2n1)c1cccc(Cl)c1 | 6.6 | 6 | 40 |  |  |  |  |
| c1ccc(-c2cc(CNc3nncc(-c4cccc5ccccc45)n3)n[nH]2)cc1 |  | 0.27 | > 10 |  |  |  |  |
| COc1ccc(-c2nc(C(F)(F)S(=O)(=O)c3cccc(Cl)c3)nc3ccsc23)cn1 | > 210 | 0.237 | > 50 |  |  |  |  |
| COc1ccc(-c2nc(CSc3ccc(C(F)(F)F)cn3)nc3ccsc23)cn1 | > 2.7 | 18 | > 50 |  |  |  |  |
| COc1ccc(-c2nc(CNc3cccc(Cl)c3)nc3ccsc23)cn1 | > 74 | 0.672 | > 50 |  |  |  |  |
| COc1ccc(-c2nc(C(F)S(=O)(=O)c3cccc(Cl)c3)nc3ccsc23)cn1 (stereo not drawn) | > 574 | 0.087 | > 50 |  |  |  |  |
| COc1ccc(-c2nc(CSc3cc(C)cc(C)c3)nc3ccsc23)cn1 | > 64 | 0.774 | > 50 |  |  |  |  |
| O=S(=O)(Cc1nc(-c2ccc(Cl)nc2)c2sccc2n1)c1cccc(Cl)c1 | 21 | 3.2 | 70 |  |  |  |  |
| COc1ccc(-c2nc(C(C)S(=O)(=O)c3cccc(Cl)c3)nc3ccsc23)cn1 (stereo not drawn) | > 595 | 0.084 | > 50 |  |  |  |  |
| O=S(=O)(Cc1nc(-c2ccnc(Cl)c2)c2sccc2n1)c1cccc(Cl)c1 | 233 | 0.27 | 63 |  |  |  |  |
| COc1ccc(-c2nc(CCc3cccc(Cl)c3)nc3ccsc23)cn1 | > 31 | 1.6 | > 50 |  |  |  |  |
| O=c1ccc(-c2nc(CS(=O)(=O)c3cccc(Cl)c3)nc3ccsc23)c[nH]1 | > 54 | 0.915 | > 50 |  |  |  |  |
| COc1ccc(-c2nc(COc3cccc(Cl)c3)nc3ccsc23)cn1 | > 130 | 0.384 | > 50 |  |  |  |  |
